Experimental data reported in patent US5244895A, “Anti-ulcer agent” (Hidaka; Hiroyoshi, priority 1991, dated 1993).
Like-named read-outs stand apart in the source and are kept apart here.

Columns and labels:
Format in all cases: in vivo, Crj:Wistar rat (male)
[1] = test system: aspirin ulcer; test: Anti-aspirin ulcer test, oral administration; conditions: 100 mg/kg oral, 6 h; for Gastric damage index: 30 min before aspirin 200 mg/kg oral, control 76.0; for inhibition in vivo at 100 mg/kg: Rattus norvegicus, gastric damage index vs control, aspirin 200 mg/kg, read-out: Inhibition rate
Method: (§1) Each 100 mg/kg of the test compounds was administered orally to a male Crj:Wistar rat of 198 to 243 g body weight fasted for ca. 24 hours (7 to 8 rats per group) and 30 minutes after the administration 200 mg/5 ml/kg of aspirin suspended in 0.5% sodium CMC aqueous solution was administered orally. Six hours later the animals was killed by exsanguination and the cardia part of stomach was ligated and 10 ml of 1% formaline solution was poured into the stomach and the stomach was extirpated. Then, it was incised along the greater curvature side and washed with physiological saline and the major axis of the spotted and linear erosion and ulcer were measured under a steromicroscope and their total sum per head was calculated as the gastric damage index (mm) and the effect was judged by the inhibiting rate against the control group [(Gastric damage index of the control group-Gastric damage index of the test compound)/Gastric damage index of the control group×100]. 0.5 ml/body weight of 1% pontamine sky blue physiological saline was injected intravenously 10 minutes before the slaughter. The test compound was administered after dissolved in physiological saline or in physiological saline containing Tween 80 added. Five […] of physiological saline was administered to the control group.

[2] = test system: gastric juice secretion; test: Anti-gastric juice secretion test, intraduodenal administration (pylorus ligation); conditions: 100 mg/kg intraduodenal, 4 h after pylorus ligation; for pH of gastric juice: control 1.7; for Amount of gastric juice: control 2.6; for Free hydrochloric acid: control 116; for Total acidity: control 168
Method: Each 100 mg/kg of the test compounds was administered duodenally to a male Crj:Wistar rat of 205 to 240 g body weight fasted for ca. 24 hours (7 to 8 rats per group) and immediately after the dose the pylorus was ligated under diethyl ether anesthesia. Four hours after the ligation, the animal was killed and the stomach was isolated and the amount and the pH of gastric juice and free hydrochloric acid contained in it and the total acidity of it were measured to examine the effect of inhibiting gastric juice secretion. The test compounds were dosed after dissolved in physiological saline or in physiological saline containing Tween 80 added. Five […] of physiological saline was administered to the control group.

[3] = test system: water immersion restriction stress ulcer; test: Water immersion restriction stress ulcer, oral administration; conditions: for Gastric damage index: 30 min before 6 h water immersion stress, control 15.7; for inhibition in vivo at 100 mg/kg: Rattus norvegicus, 6 h, read-out: Inhibition rate
Method: (§2) After the stress loading, the animal was killed by exsanguination and the cardia part of stomach was ligated and then 10 ml of 1% formalin was poured into the stomach and the stomach was extirpated. […] 0.5 ml/body weight of 1% pontamine sky blue physiological saline was injected intravenously 10 minutes before the slaughter. The test compound was administered after dissolved in physiological saline or in physiological saline containing Tween 80 added. Five […] of physiological saline was administered to the control group.

[4] = test system: aspirin ulcer; test: Anti-aspirin ulcer test, intraperitoneal administration; conditions: for Gastric damage index: 100 mg/kg intraperitoneal (abdominally injected), control 58.8; for Inhibition rate: gastric damage index vs control, 100 mg/kg intraperitoneal
Method: as §1
Each 100 mg/kg of the test compound was abdominally injected to a male Crj:Wistar rat of 210 to 265 g body weight fasted for ca. 24 hours (7 to 8 rats per group) and the procedures were carried out in a same manner as in oral administration.

[5] = test system: water immersion restriction stress ulcer; test: Water immersion restriction stress ulcer, intraperitoneal administration; conditions: 100 mg/kg intraperitoneal; for Gastric damage index: control 22.7; for Inhibition rate: gastric damage index vs control
Method: as §2

[6] = test system: gastric juice secretion; test: Anti-gastric juice secretion test, intraperitoneal administration (pylorus ligation); conditions: 100 mg/kg intraperitoneal, 30 min before pylorus ligation; for pH of gastric juice: control 1.7; for Amount of gastric juice: control 3.2; for Free hydrochloric acid: control 155; for Total acidity: control 208
[7] = gastric damage index vs control, 100 mg/kg oral, water immersion stress

| SMILES | Gastric damage index [1] [mm] | inhibition in vivo at 100 mg/kg [1] [%] | pH of gastric juice [2] | Amount of gastric juice [2] [ml/100 g body weight] | Free hydrochloric acid [2] [μEq/100 g body weight] | Total acidity [2] [μEq/100 g body weight] | Gastric damage index ([3]; 100 mg/kg oral) [mm] | inhibition in vivo at 100 mg/kg [3, 7] [%] | Gastric damage index [4] [mm] | Inhibition rate [4] [%] | Gastric damage index [5] [mm] | Inhibition rate [5] [%] | pH of gastric juice [6] | Amount of gastric juice [6] [ml/100 g body weight] | Free hydrochloric acid [6] [μEq/100 body weight] | Total acidity [6] [μEq/100 body weight] | inhibition in vivo at 100 mg/kg ([3]; po) [%] |
| --- | --- | --- | --- | --- | --- | --- | --- | --- | --- | --- | --- | --- | --- | --- | --- | --- | --- |
| O=S(=O)(NC(Cc1ccc(O)cc1)CN1CCN(c2ccccc2)CC1)c1cccc2cnccc12 (stereo not drawn) [(1), N-[1-(p-hydroxybenzyl)-2-(4-phenylpiperazinyl)ethyl]-5-isoquinoline sulfonamide] | 40.1 | 47 | 2.0 | 2.2 | 36 | 71 | 10.5 | 33 |  |  |  |  |  |  |  |  |  |
| CN(C(Cc1ccc(O)cc1)CN1CCN(c2cccc(Cl)c2)CC1)S(=O)(=O)c1cccc2cnccc12 (stereo not drawn) [(2), N-{2-[4-(m-chlorophenyl)piperazinyl]-1-(p-hydroxybenzyl)ethyl}-N-methyl-5-isoquinoline sulfonamide] | 40.3 | 46 | 2.1 | 2.1 | 40 | 92 | 9.7 | 38 |  |  |  |  |  |  |  |  |  |
| O=S(=O)(NC(Cc1ccc(OS(=O)(=O)c2cccc3cnccc23)cc1)CN1CCN(c2ccc(F)cc2)CC1)c1cccc2cnccc12 (stereo not drawn) [(3), N-{2-[4-(p-fluorophenyl)piperazinyl]-1-(p-(5-isoquinolinesulfonyloxy)benzyl]ethyl}-5-isoquinoline sulfonamide] | 56.7 | 25 | 1.8 | 2.5 | 82 | 140 | 11.2 | 29 |  |  |  |  |  |  |  |  |  |
| O=S(=O)(NC(Cc1ccc(O)cc1)CN1CCCN(c2ccccc2)CC1)c1cccc2cnccc12 (stereo not drawn) [(6), N-[1-(p-hydroxybenzyl)-2-(4-phenylhomopiperazinyl)ethyl]-5-isoquinolinesulfonamide] | 52.9 | 30 | 1.8 | 2.3 | 53 | 87 | 12.2 | 22 |  |  |  |  |  |  |  |  |  |
| O=S(=O)(NC(Cc1ccc(O)cc1)CN1CCC(OCc2ccc(Cl)c(Cl)c2)CC1)c1cccc2cnccc12 (stereo not drawn) [(7), N-{1-(p-hydroxybenzyl)-2-[4-(3,4-dichlorobenzyloxy)piperidino]ethyl}-5-isoquinoline sulfonamide] | 26.9 | 65 | 2.5 | 1.2 | 26 | 63 | 5.4 | 66 | 15.3 | 74 | 7.0 | 69 | 2.6 | 1.5 | 32 | 71 |  |
| CN(C(Cc1ccc(O)cc1)CN1CCC(OCc2ccc(Cl)c(Cl)c2)CC1)S(=O)(=O)c1cccc2cnccc12 (stereo not drawn) [(8), N-{1-(p-hydroxybenzyl)-2-[4-(3,4-dichlorobenzyloxy)piperidino]ethyl}-N-methyl-5-isoquinoline sulfonamide] | 28.9 | 62 | 2.3 | 1.6 | 32 | 68 | 6.5 |  |  |  |  |  |  |  |  |  | 59 |
| COc1ccc(CC(CN2CCC(OCc3ccc(Cl)c(Cl)c3)CC2)N(C)S(=O)(=O)c2cccc3cnccc23)cc1 (stereo not drawn) [(9), N-{1-(p-methoxybenzyl)-2-[4-(3,4-dichlorobenzyloxy)piperidino]ethyl}-N-methyl-5-isoquinoline sulfonamide] | 45.4 | 40 | 2.1 | 2.2 | 44 | 89 | 9.7 | 38 |  |  |  |  |  |  |  |  |  |
| CN(C(Cc1ccc(OS(=O)(=O)c2cccc3cnccc23)cc1)CN1CCC(c2ccccc2)CC1)S(=O)(=O)c1cccc2cnccc12 (stereo not drawn) [(10), N-{1-(p-(5-isoquinolinesulfonyloxy)benzyl]-2-(4-phenylpiperidino)ethyl}-N-methyl-5-isoquinoline sulfonamide] | 48.3 | 37 | 1.8 | 2.4 | 68 | 102 | 11.2 | 29 |  |  |  |  |  |  |  |  |  |
| CN(C(Cc1ccc(O)cc1)CN1CCC(c2ccccc2)CC1)S(=O)(=O)c1cccc2cnccc12 (stereo not drawn) [(11), N-[1-(p-hydroxybenzyl)-2-(4-phenylpiperidino)ethyl]-N-methyl-5-isoquinoline sulfonamide] | 27.3 | 64 | 2.5 | 1.5 | 36 | 65 | 6.8 | 57 |  |  |  |  |  |  |  |  |  |
| O=C(C(Cc1ccc(OS(=O)(=O)c2cccc3cnccc23)cc1)NS(=O)(=O)c1cccc2cnccc12)N1CCN(c2ccccc2)CC1 (stereo not drawn) [(12), N-[N,O-bis(5-isoquinolinesulfonyl)tyrosyl]-4-phenylpiperizine] | 43.5 | 43 | 2.1 | 2.2 | 41 | 80 | 9.4 | 40 |  |  |  |  |  |  |  |  |  |
| CN(C(Cc1ccc(OS(=O)(=O)c2cccc3cnccc23)cc1)C(=O)N1CCN(c2ccccc2)CC1)S(=O)(=O)c1cccc2cnccc12 (stereo not drawn) [(13), N-[N,O-bis(5-isoquinolinesulfonyl)-N-methyltyrosyl]-4-phenylpiperizine] | 30.3 | 60 | 2.3 | 1.9 |  |  | 5.4 | 66 | 17.6 | 70 | 6.4 | 72 | 2.4 | 1.6 | 55 | 102 |  |
